Publication PMC8291126, “Functional Characterization of Ecdysis Triggering Hormone Receptors (AgETHR-A and AgETHR-B) in the African Malaria Mosquito, Anopheles gambiae” (Frontiers in Physiology, 2021)

Legend:
AgETHR-B = experiment: Calcium mobilization assay (aequorin luminescence) with heterologously expressed AgETHR-B; type: cell-based, Anopheles gambiae; conditions: for agonistic activity normalized by the activity of AgETH2 / response of AgETHR-B relative to other ETHs (in words) / concentration of maximum response (at the level over) / lowest activating concentration (receptor not activated lower than) / response/sensitivity of AgETHR-B to own ETHs (in words): AgETHR-B; for agonistic activity normalized by the activity of AgETH2: CHO cells, normalized to AgETH2; for response of AgETHR-B relative to other ETHs (in words): 0.1 μm; for EC50: AgETHR-B in CHO cells, calcium mobilization, luminescence integrated 20 s, at least three replicates; for higher sensitivity of AgETHR-B than AgETHR-A: AgETHR-B vs. AgETHR-A, calcium mobilization assay; for concentration of maximum response (at the level over) / lowest activating concentration (receptor not activated lower than) / response/sensitivity of AgETHR-B to own ETHs (in words): dose-response
Excerpt: (§1) We tested different synthetic insect neuropeptides with PRXamide, including four groups: ETH, pyrokinin1/DH, pyrokinin2/PBAN, and CAPA. The following synthetic peptides were utilized to investigate selectivity and sensitivity of each AgETHR-A and AgETHR-B; AgETH1 (SESPGFIKLSKSVPRIa, NEOBiolab, United States), AgETH2 (GDLENFFLKQSKSVPRIa, GenScript United States Inc.), TcETH1 (ENYVLKAAKNVPRIa), TcETH2 (FFMKASKSVPRIa), TcPK1-1 (PGANSGGMWFGPRLa, GenScript United States Inc.), TcPK1-2 ([…]a), TcCAPA-1([…]a, PepMicCo. Ltd., Suzhou, China), TcCAPA-2 (RIGKMVSFPRIa); MsPBAN (TRTRYFSPRLa), Pyrokinin2-1 (HVVNFTPRLa, Biomatik, United States), DmETH1 (DDSSPGFFLKITKNVPRLa) and DmETH2 (GENFAIKNLKTIPRIa).
(§2) The functional analysis of the AgETH receptors was performed based on the previous description with modifications ([Park et al., 2003]; [Kim et al., 2014]; [Jiang et al., 2016]). The expression vector pcDNA 3.1 (+) (Invitrogen, Carlsbad, CA, United States), including the open reading frame (ORF) for each AgETHR-A and AgETHR-B, was transiently transfected into the CHO cells with a codon-optimized human apoaequorin-containing plasmid ([Vernon and Printen, 2002]) by using TransIT®-2020 (Mirus, Madison, WI, United States). […] The Kozak sequence for the mammalian Kozak consensus sequence ‘GCCACC’ at the 5' ends of each ORF for each AgETHR-A and AgETHR-B was […], allowing for successful functional expression. After approximately 24–28 h, transfected cells were harvested and prepared for the calcium mobilization assay by incubating in assay media DMEM/F12, including coelenterazine h (final concentration 5 μm; AAT Bioquest, Sunnyvale, CA, United States). Different concentrations of synthetic neuropeptides, including AgETH1, AgETH2, and ETH-related neuropeptides (PRXamides), were prepared in a 96-well plate, upon which the transfected cells (~15,000 cells in 50 μl) were applied. The value of luminescence, the indicator or calcium mobilization, was integrated over time for 20 s and normalized to the treatment of either 0.1 or 1 μm of each AgETH1 and AgETH2 positive control response and negative control background values.

AgETHR-A = experiment: Calcium mobilization assay (aequorin luminescence) with heterologously expressed AgETHR-A; type: cell-based, Anopheles gambiae; conditions: for agonistic activity normalized by the activity of AgETH1 / response of AgETHR-A (in words) / concentration of maximum response (at the level over) / lowest activating concentration (receptor not activated lower than) / response/sensitivity of AgETHR-A to own ETHs (in words): AgETHR-A; for agonistic activity normalized by the activity of AgETH1: CHO cells, normalized to AgETH1; for response of AgETHR-A (in words): 0.1 and 1 μm; for EC50: AgETHR-A in CHO cells, calcium mobilization, luminescence integrated 20 s, at least three replicates; for concentration of maximum response (at the level over) / lowest activating concentration (receptor not activated lower than) / response/sensitivity of AgETHR-A to own ETHs (in words): dose-response
Excerpt: as §1, §2

TcETHR-B = conditions: out of 70 peptides, ref Jiang et al., 2015; cited from earlier work

Row | Substance | agonistic activity normalized by the activity of AgETH2 (AgETHR-B; 0.1 μM peptide) | agonistic activity normalized by the activity of AgETH2 (AgETHR-B; 1 μM peptide) | agonistic activity normalized by the activity of AgETH1 (AgETHR-A; 0.1 μM peptide) | agonistic activity normalized by the activity of AgETH1 (AgETHR-A; 1 μM peptide) | response of AgETHR-A (in words) (AgETHR-A) | also measured
1 | DDSSPGFFLKITKNVPRLa [DmETH1, D. melanogaster ETH] | 105% | 98% | 138% | 102% | responded | 
2 | ENYVLKAAKNVPRIa [TcETH1, T. castaneum ETH] | 81% | 104% | -11% | 32% | small or no response | response of AgETHR-B relative to other ETHs (in words) (AgETHR-B): relatively lower responses; agonist activity (in words) (TcETHR-B): agonist activity
3 | EPKEPKRNKLASVYALTPSLRVa [TcCAPA-1, synthetic insect neuropeptide, CAPA (PepMicCo)] | 0% | -2% | -22% | -4% |  | 
4 | FFMKASKSVPRIa [TcETH2, T. castaneum ETH] | 109% | 107% | 57% | 86% | responded | agonist activity (in words) (TcETHR-B): agonist activity
5 | GDLENFFLKQSKSVPRIa [AgETH2, Anopheles gambiae ecdysis triggering hormone 2, synthetic (GenScript)] | 100% | 100% | 24% | 69% |  | EC50 (AgETHR-B): 2.2 nM; higher sensitivity of AgETHR-B than AgETHR-A (AgETHR-B): 320 times; concentration of maximum response (at the level over) (AgETHR-B): over 100 nm; lowest activating concentration (receptor not activated lower than) (AgETHR-B): ≥ 0.03 nm; response/sensitivity of AgETHR-B to own ETHs (in words) (AgETHR-B): dose-dependent responses; response/sensitivity of AgETHR-B to own ETHs (in words) (AgETHR-B; listed as AgETH-2): sensitive; EC50 (AgETHR-A): 703 nM; concentration of maximum response (at the level over) (AgETHR-A): over 100 um; lowest activating concentration (receptor not activated lower than) (AgETHR-A): ≥ 10 nm; response/sensitivity of AgETHR-A to own ETHs (in words) (AgETHR-A): dose-dependent responses; response/sensitivity of AgETHR-A to own ETHs (in words) (AgETHR-A; listed as AgETH-2): sensitive
6 | GENFAIKNLKTIPRIa [DmETH2, D. melanogaster ETH] | 83% | 102% | -14% | 2% | small or no response | response of AgETHR-B relative to other ETHs (in words) (AgETHR-B): relatively lower responses
7 | HVVNFTPRLa [Pyrokinin2-1, synthetic insect neuropeptide with PRXamide (Biomatik)] | 1% | -1% | -21% | -4% |  | 
8 | PGANSGGMWFGPRLa [TcPK-1-1, synthetic insect neuropeptide with PRXamide (GenScript)] | 1% | -3% | -18% | -2% |  | 
9 | RIGKMVSFPRIa [TcCAPA-2, synthetic insect neuropeptide, CAPA] | 0% | 2% | -24% | -4% |  | 
10 | SESPGFIKLSKSVPRIa [AgETH1, Anopheles gambiae ecdysis triggering hormone 1, synthetic (NEOBiolab)] | 97% | 98% | 100% | 100% |  | EC50 (AgETHR-B): 4.5 nM; higher sensitivity of AgETHR-B than AgETHR-A (AgETHR-B): 28 times; concentration of maximum response (at the level over) (AgETHR-B): over 100 nm; lowest activating concentration (receptor not activated lower than) (AgETHR-B): ≥ 0.1 nm; response/sensitivity of AgETHR-B to own ETHs (in words) (AgETHR-B): dose-dependent responses; response/sensitivity of AgETHR-B to own ETHs (in words) (AgETHR-B; listed as AgETH-1): sensitive; EC50 (AgETHR-A): 127 nM; concentration of maximum response (at the level over) (AgETHR-A): over 10 um; lowest activating concentration (receptor not activated lower than) (AgETHR-A): ≥ 3 nm; response/sensitivity of AgETHR-A to own ETHs (in words) (AgETHR-A): dose-dependent responses; response/sensitivity of AgETHR-A to own ETHs (in words) (AgETHR-A; listed as AgETH-1): sensitive
11 | TPHESSVPNERNDDSKETYFWFGPRLa [TcPK-1-2, synthetic insect neuropeptide with PRXamide] | 1% | -2% | -13% | -3% |  | 
12 | TRTRYFSPRLa [MsPBAN, synthetic insect neuropeptide with PRXamide] | 0% | -2% | -21% | -3% |  | 
